Test results from ChEMBL document CHEMBL4118212, “Structure-activity relationship of uridine-based nucleoside phosphoramidate prodrugs for inhibition of dengue virus RNA-dependent RNA polymerase” (Bioorg Med Chem Lett, 2018).

Legend:
[1] = target: Nonstructural protein 5 (Dengue virus, UniProt V5TFZ2); test: Inhibition of Dengue virus RdRp activity using 5'-(TCAG)20(TCCAAG)14(TCAG)20-3' as template measured after 120 mins
[2] = target: POLRMT (DNA-directed RNA polymerase, mitochondrial) (Homo sapiens, UniProt O00411); test: Inhibition of human POLRMT using 5'-FAM labelled RNA primer/DNA template duplex assessed as single nucleotide incorporation rate at 500 uM after 5 mins by SDS-PAGE analysis relative to control; parameters: scale not given: the % may be the effect or the level left; conditions: probe 5'-FAM labelled RNA primer/DNA template duplex, read-out: Activity
Chain of POLRMT (DNA-directed RNA polymerase, mitochondrial) (O00411 whole entry): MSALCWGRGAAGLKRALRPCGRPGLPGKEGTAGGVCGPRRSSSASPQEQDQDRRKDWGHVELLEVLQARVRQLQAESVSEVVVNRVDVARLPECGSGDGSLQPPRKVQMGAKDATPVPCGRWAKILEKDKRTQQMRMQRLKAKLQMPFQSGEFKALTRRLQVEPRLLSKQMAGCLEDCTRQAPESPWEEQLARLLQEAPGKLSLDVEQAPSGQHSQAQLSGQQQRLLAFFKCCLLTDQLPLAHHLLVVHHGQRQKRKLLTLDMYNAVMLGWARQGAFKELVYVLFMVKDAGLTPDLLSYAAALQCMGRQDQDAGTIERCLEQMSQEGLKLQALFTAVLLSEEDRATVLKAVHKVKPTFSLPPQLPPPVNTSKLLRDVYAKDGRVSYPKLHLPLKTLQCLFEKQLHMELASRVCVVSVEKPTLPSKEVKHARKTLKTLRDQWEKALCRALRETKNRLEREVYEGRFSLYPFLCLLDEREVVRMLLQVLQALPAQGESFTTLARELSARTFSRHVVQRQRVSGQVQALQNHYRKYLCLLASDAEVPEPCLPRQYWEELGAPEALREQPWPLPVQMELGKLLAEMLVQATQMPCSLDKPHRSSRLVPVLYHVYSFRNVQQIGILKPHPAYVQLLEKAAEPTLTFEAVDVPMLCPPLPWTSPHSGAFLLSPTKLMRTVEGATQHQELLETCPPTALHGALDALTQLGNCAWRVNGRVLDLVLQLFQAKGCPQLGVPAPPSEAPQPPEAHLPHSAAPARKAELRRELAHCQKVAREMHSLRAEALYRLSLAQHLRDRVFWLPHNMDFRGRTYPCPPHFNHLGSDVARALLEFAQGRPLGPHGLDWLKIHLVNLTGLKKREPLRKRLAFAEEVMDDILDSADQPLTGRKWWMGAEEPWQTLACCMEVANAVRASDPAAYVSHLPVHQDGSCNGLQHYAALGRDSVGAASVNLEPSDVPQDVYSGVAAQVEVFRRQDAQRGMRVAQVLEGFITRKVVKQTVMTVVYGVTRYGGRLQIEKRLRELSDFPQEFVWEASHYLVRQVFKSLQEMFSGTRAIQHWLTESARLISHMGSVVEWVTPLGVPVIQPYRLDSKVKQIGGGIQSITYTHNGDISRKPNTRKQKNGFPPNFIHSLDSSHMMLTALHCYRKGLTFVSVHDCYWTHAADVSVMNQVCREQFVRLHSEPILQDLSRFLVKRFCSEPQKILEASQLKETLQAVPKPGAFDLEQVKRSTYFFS

[3] = Inhibition of recombinant human mitochondrial DNA polymerase gamma expressed in Escherichia coli BL21(DE3) cells assessed as single nucleotide incorporation rate at 100 uM relative to NTP; parameters: scale not given: the % may be the effect or the level left
[4] = system: dengue virus type 2; test: Antiviral activity against Dengue virus 2 infected in human HuH7 cells by replicon assay; type: functional, organism-based; conditions: Huh-7
[5] = Cytotoxicity against human HepG2 cells after 96 hrs by CCK-8 assay; type: cell-based
[6] = system: dengue virus type 2; test: Antiviral activity against Dengue virus 2 infected in human PBMC after 2 days post infection by plaque assay; type: functional, organism-based; conditions: 48 h
[7] = Cytotoxicity against human MT4 cells; type: cell-based
[8] = Cytotoxicity against human K562 cells; type: cell-based
[9] = Mitochondrial toxicity in human PC3 cells assessed as effect on mitochondrial protein synthesis measured after 5 days by ELISA; type: cell-based, PC-3
[10] = target: DNA-directed RNA polymerase, mitochondrial (Homo sapiens, UniProt O00411); test: Inhibition of human full length POLRMT using 32P-RNA primer/DNA template assessed as single nucleotide incorporation rate at 500 uM by SDS-PAGE analysis relative to CTP; parameters: scale not given: the % may be the effect or the level left
Chain of DNA-directed RNA polymerase, mitochondrial (O00411 whole entry): as above

[11] = system: dengue virus type 2; test: Antiviral activity against Dengue virus 2 infected in human PBMC after 24 hrs post infection by plaque assay; type: functional, organism-based

Chain of Nonstructural protein 5 (V5TFZ2 whole entry): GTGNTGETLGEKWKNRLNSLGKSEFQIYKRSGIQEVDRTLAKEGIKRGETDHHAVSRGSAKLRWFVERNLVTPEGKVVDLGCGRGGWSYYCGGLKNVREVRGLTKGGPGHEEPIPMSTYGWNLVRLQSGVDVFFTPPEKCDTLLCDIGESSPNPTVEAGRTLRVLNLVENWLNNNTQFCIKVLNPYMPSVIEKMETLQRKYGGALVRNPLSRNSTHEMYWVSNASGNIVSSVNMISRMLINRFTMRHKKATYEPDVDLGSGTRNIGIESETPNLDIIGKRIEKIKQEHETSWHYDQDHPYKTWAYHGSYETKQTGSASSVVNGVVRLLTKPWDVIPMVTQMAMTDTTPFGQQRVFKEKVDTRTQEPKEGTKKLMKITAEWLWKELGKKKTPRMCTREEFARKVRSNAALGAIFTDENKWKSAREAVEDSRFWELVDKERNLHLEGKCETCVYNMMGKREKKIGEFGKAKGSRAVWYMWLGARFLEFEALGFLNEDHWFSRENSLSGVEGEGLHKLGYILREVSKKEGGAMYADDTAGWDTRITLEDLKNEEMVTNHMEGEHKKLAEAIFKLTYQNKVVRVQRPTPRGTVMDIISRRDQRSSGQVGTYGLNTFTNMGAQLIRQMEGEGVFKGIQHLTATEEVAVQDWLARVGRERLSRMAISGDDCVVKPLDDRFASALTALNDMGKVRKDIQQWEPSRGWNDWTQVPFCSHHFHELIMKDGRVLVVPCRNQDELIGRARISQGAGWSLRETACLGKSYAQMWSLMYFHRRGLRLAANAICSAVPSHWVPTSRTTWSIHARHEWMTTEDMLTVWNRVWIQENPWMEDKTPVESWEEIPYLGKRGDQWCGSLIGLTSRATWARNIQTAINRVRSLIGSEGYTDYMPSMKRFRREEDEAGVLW

IC50 [1] [µM] | activity at 5 min, 500 µM [2] [%] | SMILES | CC50 at 96 h [5] [µM] | EC50 [6] [µM] | further results
0.65 | 3 | C#C[C@]1(O)[C@H](n2ccc(=O)[nH]c2=O)O[C@](F)(COP(=O)(O)OP(=O)(O)OP(=O)(O)O)[C@H]1O |  |  | Activity [3]: 0%
 |  | CC#C[C@@]1(F)[C@H](O)[C@@H](CO[P@@](=O)(N[C@@H](C)C(=O)OC(C)C)Oc2ccccc2)O[C@H]1n1ccc(=O)[nH]c1=O | > 50 |  | EC50 [4]: > 100 µM
 |  | C#C[C@]1(O)[C@H](n2ccc(=O)[nH]c2=O)O[C@](F)(CO[P@@](=O)(N[C@@H](C)C(=O)OC(C)C)Oc2ccccc2)[C@H]1O | > 50 | 0.57 | CC50 [7]: > 50 µM; CC50 [8]: > 50 µM; CC50 at 120 h [9]: > 200 µM
 |  | CC#C[C@@]1(O)[C@H](O)[C@@H](CO[P@@](=O)(N[C@@H](C)C(=O)OC(C)C)Oc2ccccc2)O[C@H]1n1ccc(=O)[nH]c1=O | > 50 | 1.9 | 
1.6 | 16.8 | C#C[C@@]1(O)[C@H](O)[C@@H](COP(=O)(O)OP(=O)(O)OP(=O)(O)O)O[C@H]1n1ccc(=O)[nH]c1=O |  |  | 
2.8 | 1.7 | CC#C[C@]1(O)[C@H](n2ccc(=O)[nH]c2=O)O[C@](F)(COP(=O)(O)OP(=O)(O)OP(=O)(O)O)[C@H]1O |  |  | 
2 | 6.7 | CC#C[C@@]1(O)[C@H](O)[C@@H](COP(=O)(O)OP(=O)(O)OP(=O)(O)O)O[C@H]1n1ccc(=O)[nH]c1=O |  |  | 
15.9 | 2 | C#C[C@@]1(F)[C@H](O)[C@@H](COP(=O)(O)OP(=O)(O)OP(=O)(O)O)O[C@H]1n1ccc(=O)[nH]c1=O |  |  | 
 |  | C#C[C@@]1(F)[C@H](O)[C@@H](CO[P@@](=O)(N[C@@H](C)C(=O)OC(C)C)Oc2ccccc2)O[C@H]1n1ccc(=O)[nH]c1=O | > 50 | > 25 | 
 |  | CC#C[C@]1(O)[C@H](n2ccc(=O)[nH]c2=O)O[C@](F)(CO[P@@](=O)(N[C@@H](C)C(=O)OC(C)C)Oc2ccccc2)[C@H]1O | > 50 | 9 | 
 |  | C#C[C@@]1(O)[C@H](O)[C@@H](CO[P@@](=O)(N[C@@H](C)C(=O)OC(C)C)Oc2ccccc2)O[C@H]1n1ccc(=O)[nH]c1=O | > 50 | 0.45 | 
> 20 | 2.2 | CC#C[C@@]1(F)[C@H](O)[C@@H](COP(=O)(O)OP(=O)(O)OP(=O)(O)O)O[C@H]1n1ccc(=O)[nH]c1=O |  |  | 
5 | 29.4 | C[C@@]1(O)[C@H](O)[C@@H](COP(=O)(O)OP(=O)(O)OP(=O)(O)O)O[C@H]1n1ccc(=O)[nH]c1=O |  |  | 
 |  | CC(C)OC(=O)[C@H](C)NP(=O)(OC[C@H]1O[C@@H](n2ccc(=O)[nH]c2=O)[C@](C)(O)[C@@H]1O)Oc1ccccc1 (mixture of isomers) | > 50 | 0.19 | 
 |  | [N-]=[N+]=N[C@]1(CO)O[C@@H](n2ccc(N)nc2=O)[C@H](O)[C@@H]1O [4'-AZIDOCYTIDINE] |  |  | Activity [10]: 91%; EC50 [11]: 0.25 µM
6.6 | 5.7 | C[C@]1(O)[C@H](n2ccc(=O)[nH]c2=O)O[C@](F)(COP(=O)(O)OP(=O)(O)OP(=O)(O)O)[C@H]1O [ADAFOSBUVIR 5'-TRIPHOSPHATE] |  |  | 
 |  | CC(C)OC(=O)[C@H](C)N[P@](=O)(OC[C@@]1(F)O[C@@H](n2ccc(=O)[nH]c2=O)[C@](C)(O)[C@@H]1O)Oc1ccccc1 [ADAFOSBUVIR] | > 50 | 1.1 | 
18 | 1.8 | C[C@@]1(F)[C@H](O)[C@@H](COP(=O)(O)OP(=O)(O)OP(=O)(O)O)O[C@H]1n1ccc(=O)[nH]c1=O [GS-461203] |  |  | 
 |  | CC(C)OC(=O)[C@H](C)N[P@](=O)(OC[C@H]1O[C@@H](n2ccc(=O)[nH]c2=O)[C@](C)(F)[C@@H]1O)Oc1ccccc1 [SOFOSBUVIR] | > 50 | 1.2 | 
